In brackets after ≈: the same amount, converted by molar mass. Several values for one entry are separate records, joined by “and”; a condition that tells them apart may be missing. Equal entries are not always repeated.
Key:
Mus musculus = settings: acute; oral; M; mortality
Canidae = settings: chronic; duration: 1 years; oral; Dog Other; histopathology: nonneoplastic
Bibionidae = settings: chronic/long-term; duration: 28 days
Daphnia magna = settings: chronic/long-term; duration: 21 days; reproduction
Danio rerio = settings: mortality
Folsomia candida = settings: chronic/long-term; duration: 28 days
Colinus virginianus = settings: for LD50: acute, oral, mortality
Apis mellifera = settings: acute; duration: 48 hours; dermal; mortality

## CCCN(CC)CC1COC2(CCC(C(C)(C)C)CC2)O1 (stereo not drawn) [Spiroxamine]
Mus musculus
  LD50: 460 mg/kg-day
Canidae
  NOAEL: 2.5 mg/kg-day
Rattus norvegicus; acute, neurology
  NOAEL: 10 mg/kg-day
Rattus norvegicus; acute, oral, F, mortality
  LD50: < 560 mg/kg-day
Rattus norvegicus; chronic
  NOEL: 9.19 mg/kg-day and 22.2 mg/kg-day
Anas platyrhynchos; reproductive
  NOEL: 10.6 mg/kg-day
Anas platyrhynchos; short-term, oral, feed, mortality
  LD50: 874 mg/kg-day
Bibionidae
  NOEC: 5.6 mg/L
Tagia sp.; acute, duration: 14 days, mortality
  LC50: > 1000 mg/kg
Tagia sp.; chronic/long-term, duration: 56 days
  NOEC: > 3750 mg/kg
Daphnia magna
  NOEC: 0.034 mg/L
Danio rerio; acute, duration: 96 hours
  LC50: 2.41 µg/mL (≈ 8.1 µM)
Danio rerio; chronic, duration: 230 days
  NOEC: 0.002 mg/L
Folsomia candida
  NOEC: 32 mg/kg
Colinus virginianus; diet
  LD50: > 358 mg/kg-day
Colinus virginianus
  LD50: 565 mg/kg-day
Colinus virginianus; reproduction developmental
  NOEL: 2.02 mg/kg-day
Apis mellifera
  LD50: > 4.2 µg/piece

From EPA's ToxValDB 9.5 (doi:10.2903/j.efsa.2010.1719)
